Assays:
[1] = test system: blood flow in coronary, mesenteric, hind limb and renal vascular beds; experiment: Example 8: vasodilator effects in different vascular beds (CBF, MBF, LBF, RBF) in awake dogs; format: in vivo; settings: CVT-3146 2.5 μg/kg, ADO 250 μg/kg
Procedure: Example 8 employed a pharmaceutical composition consisting of an aqueous composition of 100 micrograms/mL CVT-3146 in 15% (w:v) propylene glycol and 100 mM phosphate buffer at pH 7 with 0.1% EDTA. The formulation was stored in type I glass vials at 5 mL per vial.
In this study the vasodilator effects of CVT-3146 were compared to those of ADO in different vascular beds in awake dogs. Dogs were chronically instrumented for measurements of the blood flow in coronary (CBF), mesenteric (MBF), hind limb (LBF), and renal (RBF) vascular beds, and hemodynamics.

[2] = test system: heart rate (HR) and blood pressure (BP); experiment: Example 5: heart rate, blood pressure and plasma catecholamines after i.v. bolus in awake rats (sympathoexcitation); format: in vivo; settings: in the presence of hexamethonium 10 mg/kg, n=5
Procedure: The present study was carried out to determine whether CVT-3146, a selective A2A adenosine receptor agonist, causes sympathoexcitation.
CVT (0.31 μg/kg-50 μg/kg) was given as a rapid i.v. bolus to awake rats and heart rate (HR) and blood pressure (BP) were monitored. CVT-3146 caused an increase in BP and systolic pressure (SP) at lower doses while at higher doses there was a decrease in BP and SP. […] The increase in HR was evident at the lowest dose of CVT at which there was no appreciable decrease in BP. ZM241385 (30 μg/kg, N=5), an A2A receptor antagonist, attenuated the decrease in BP (CVT-3146: 14±3%, ZM: 1±1%) and the increase in HR (CVT: 27±3%, ZM: 18±3%) caused by CVT-3146. Pretreatment with metoprolol (MET, 1 mg/kg, n=5), a beta-blocker, attenuated the increase in HR (CVT: 27±3%, MET: 15±2%), but had no effect on hypotension caused by CVT-3146. In the presence of hexamethonium (HEX, 10 mg/kg, n=5), a ganglionic blocker, the tachycardia was prevented (CVT: 27±3%, HEX: −1±2%), but BP was further reduced (CVT: −11±2%, HEX: −49±5%).

Row | Compound | duration for CBF above 2-fold of the baseline [1] [s] | change in BP caused by CVT-3146 [2] [%] | increase in HR (tachycardia) caused by CVT-3146 [2] [%]
1 | Nc1ncnc2c1ncn2[C@@H]1O[C@H](CO)[C@@H](O)[C@H]1O [adenosine, reference compound] | 16 ± 3 | – | –
2 | C[N+](C)(C)CCCCCC[N+](C)(C)C [hexamethonium, reference compound] | – | −49±5 | −1±2
